# Reference: ChEMBL document CHEMBL5543111, “Uncovering PROTAC Sensitivity and Efficacy by Multidimensional Proteome Profiling: A Case for STAT3” (J Med Chem, 2024)
# Calls of active or inactive are those of the source. The rule behind the calls is not given here.
# Assays:
# [1] = molecular target: T1, Protein cereblon/Signal transducer and activator of transcription 3 (Homo sapiens) (UniProt P40763+Q96SW2); experiment: PROTAC activity at CRBN/STAT3 in human SU-DHL-4 cells assessed as induction of STAT3 degradation at 5 uM measured after 3 hrs; type: cell-based
# T1 sequence (P40763 2-770 limits assumed): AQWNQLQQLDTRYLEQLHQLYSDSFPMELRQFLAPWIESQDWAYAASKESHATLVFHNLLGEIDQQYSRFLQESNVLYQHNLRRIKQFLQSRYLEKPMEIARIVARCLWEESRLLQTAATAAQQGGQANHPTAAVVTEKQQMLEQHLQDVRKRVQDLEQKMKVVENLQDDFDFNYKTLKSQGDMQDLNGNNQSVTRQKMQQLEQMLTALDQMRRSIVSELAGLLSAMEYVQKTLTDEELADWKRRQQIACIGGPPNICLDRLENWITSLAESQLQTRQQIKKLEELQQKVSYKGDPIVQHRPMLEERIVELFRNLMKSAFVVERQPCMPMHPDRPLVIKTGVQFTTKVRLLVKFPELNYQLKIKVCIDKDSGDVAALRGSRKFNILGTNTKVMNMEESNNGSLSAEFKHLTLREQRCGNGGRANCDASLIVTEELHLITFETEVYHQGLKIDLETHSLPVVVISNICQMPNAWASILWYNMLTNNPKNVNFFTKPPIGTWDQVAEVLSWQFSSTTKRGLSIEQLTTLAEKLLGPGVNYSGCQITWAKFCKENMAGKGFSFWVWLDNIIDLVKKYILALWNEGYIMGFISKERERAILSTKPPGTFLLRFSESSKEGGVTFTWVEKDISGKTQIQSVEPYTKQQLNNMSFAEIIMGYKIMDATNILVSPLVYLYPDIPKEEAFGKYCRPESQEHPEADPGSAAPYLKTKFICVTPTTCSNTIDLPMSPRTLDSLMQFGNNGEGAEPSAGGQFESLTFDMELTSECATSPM
# T1 sequence (Q96SW2 whole entry partner): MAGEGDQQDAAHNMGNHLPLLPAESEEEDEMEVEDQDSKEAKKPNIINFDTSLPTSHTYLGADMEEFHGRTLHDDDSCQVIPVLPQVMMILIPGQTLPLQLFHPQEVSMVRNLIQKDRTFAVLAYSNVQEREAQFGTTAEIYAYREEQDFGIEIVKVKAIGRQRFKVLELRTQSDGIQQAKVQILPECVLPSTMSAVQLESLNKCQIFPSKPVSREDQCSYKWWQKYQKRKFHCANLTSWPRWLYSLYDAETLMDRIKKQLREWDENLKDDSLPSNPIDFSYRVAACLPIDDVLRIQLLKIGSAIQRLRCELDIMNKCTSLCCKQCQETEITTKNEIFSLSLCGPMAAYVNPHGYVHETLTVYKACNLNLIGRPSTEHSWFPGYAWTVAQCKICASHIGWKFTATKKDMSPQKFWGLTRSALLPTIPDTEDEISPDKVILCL
# [2] = molecular target: T1, Protein cereblon/Signal transducer and activator of transcription 3 (Homo sapiens); experiment: PROTAC activity at CRBN/STAT3 in human KARPAS-299 cells assessed as induction of STAT3 degradation at 5 uM measured after 3 hrs; type: cell-based
# KARPAS-299 [3] = experiment: Downregulation of PCLAF expression in human KARPAS-299 at 5 to 10 uM measured after 24 hrs; type: functional, cell-based; settings: dose 5-10 µM
# Pfeiffer [4] = experiment: Cytotoxicity against human Pfeiffer cells harbouring STAT3 assessed as reduction in cell viability at 2 uM measured after 3 days by CCK- method; type: functional, cell-based; settings: time 3.0 day
# Mus musculus [5] = experiment: In vivo PROTAC activity at CRBN/STAT1 in human Pfeiffer cells xenografted in CB-17/SCID mouse model bearing last stage of TPPRC assessed as upregulation of STAT1 by measuring fold change; type: functional
# [6] = molecular target: T2, Protein cereblon/Signal transducer and activator of transcription 6 (Homo sapiens) (UniProt P42226+Q96SW2); experiment: PROTAC activity at CRBN/STAT6 in human KARPAS-299 cells assessed as induction of STAT6 degradation at 5 to 10 uM measured after 24 hrs; type: cell-based; settings: dose 5-10 µM
# T2 sequence (P42226 2-847 limits assumed): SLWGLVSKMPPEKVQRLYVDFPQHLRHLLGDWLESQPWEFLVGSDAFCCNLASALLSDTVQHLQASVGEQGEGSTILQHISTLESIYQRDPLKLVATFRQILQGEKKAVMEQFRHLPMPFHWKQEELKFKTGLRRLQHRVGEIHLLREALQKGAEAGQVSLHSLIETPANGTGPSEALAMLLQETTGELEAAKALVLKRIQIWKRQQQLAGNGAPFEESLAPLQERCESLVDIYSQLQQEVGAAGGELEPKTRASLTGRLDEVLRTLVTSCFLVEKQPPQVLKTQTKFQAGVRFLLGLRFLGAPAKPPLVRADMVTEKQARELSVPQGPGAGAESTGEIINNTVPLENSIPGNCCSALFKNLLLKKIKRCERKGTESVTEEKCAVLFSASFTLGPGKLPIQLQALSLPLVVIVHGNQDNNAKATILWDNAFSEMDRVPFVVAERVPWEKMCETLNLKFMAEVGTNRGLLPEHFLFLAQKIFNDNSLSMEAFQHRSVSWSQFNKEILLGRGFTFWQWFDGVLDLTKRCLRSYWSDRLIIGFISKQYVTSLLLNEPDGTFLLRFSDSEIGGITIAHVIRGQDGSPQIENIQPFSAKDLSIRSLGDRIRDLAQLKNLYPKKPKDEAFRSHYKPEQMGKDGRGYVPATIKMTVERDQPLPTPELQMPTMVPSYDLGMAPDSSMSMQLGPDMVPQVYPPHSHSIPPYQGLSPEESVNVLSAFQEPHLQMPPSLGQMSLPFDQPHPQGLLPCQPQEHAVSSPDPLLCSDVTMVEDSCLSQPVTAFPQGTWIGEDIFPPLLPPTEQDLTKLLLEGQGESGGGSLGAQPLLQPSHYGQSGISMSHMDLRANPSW
# T2 sequence (Q96SW2 whole entry partner): as the sequence (Q96SW2 whole entry partner) above
# [7] = molecular target: T1, Protein cereblon/Signal transducer and activator of transcription 3 (Homo sapiens); experiment: PROTAC activity at CRBN/STAT3 in human KARPAS-299 cells assessed as induction of STAT3 degradation at 5 to 10 uM measured after 24 hrs; type: cell-based; settings: dose 5-10 µM
# [8] = molecular target: T1, Protein cereblon/Signal transducer and activator of transcription 3 (Homo sapiens); experiment: PROTAC activity at CRBN/STAT3 in human MOLM16 cells assessed as induction of STAT3 degradation at 5 uM measured after 3 hrs; type: cell-based
# [9] = molecular target: T1, Protein cereblon/Signal transducer and activator of transcription 3 (Homo sapiens); experiment: PROTAC activity at CRBN/STAT3 in human SUPM2 cells assessed as fold change in STAT3 degradation at 5 uM measured after 24 hrs; type: cell-based
# [10] = Toxicity in CB-17/SCID mouse bearing late stage of TPPRC assessed as effect on body weight at 25 to 50 mg/kg, iv measured after 21 days; type: organism-based; settings: in vivo, 504 h, dose 25-50 mg/kg, time 21 day
# [11] = molecular target: T3, Protein cereblon/Signal transducer and activator of transcription 1-alpha/beta (Homo sapiens) (UniProt P42224+Q96SW2); experiment: PROTAC activity at CRBN/STAT1 in human KARPAS-299 cells assessed as induction of STAT1 degradation at 5 to 10 uM measured after 24 hrs; type: cell-based; settings: dose 5-10 µM
# Pfeiffer [12] = experiment: Downregulation of STAT3 expression in patient derived STAT3 low expressing human Pfeiffer cell organoids at 2 uM by Western blot analysis; type: functional, cell-based
# Pfeiffer [13] = experiment: Cytotoxicity against human Pfeiffer cells harbouring STAT1 assessed as reduction in cell viability measured after 3 days by CCK- method; type: functional, cell-based; settings: time 3.0 day
# [14] = molecular target: T4, Protein cereblon/Signal transducer and activator of transcription 5A (Homo sapiens) (UniProt P42229+Q96SW2); experiment: PROTAC activity at CRBN/STAT5A in human KARPAS-299 cells assessed as induction of STAT5A degradation at 5 to 10 uM measured after 24 hrs; type: cell-based; settings: dose 5-10 µM
# T4 sequence (P42229 whole entry, looked up): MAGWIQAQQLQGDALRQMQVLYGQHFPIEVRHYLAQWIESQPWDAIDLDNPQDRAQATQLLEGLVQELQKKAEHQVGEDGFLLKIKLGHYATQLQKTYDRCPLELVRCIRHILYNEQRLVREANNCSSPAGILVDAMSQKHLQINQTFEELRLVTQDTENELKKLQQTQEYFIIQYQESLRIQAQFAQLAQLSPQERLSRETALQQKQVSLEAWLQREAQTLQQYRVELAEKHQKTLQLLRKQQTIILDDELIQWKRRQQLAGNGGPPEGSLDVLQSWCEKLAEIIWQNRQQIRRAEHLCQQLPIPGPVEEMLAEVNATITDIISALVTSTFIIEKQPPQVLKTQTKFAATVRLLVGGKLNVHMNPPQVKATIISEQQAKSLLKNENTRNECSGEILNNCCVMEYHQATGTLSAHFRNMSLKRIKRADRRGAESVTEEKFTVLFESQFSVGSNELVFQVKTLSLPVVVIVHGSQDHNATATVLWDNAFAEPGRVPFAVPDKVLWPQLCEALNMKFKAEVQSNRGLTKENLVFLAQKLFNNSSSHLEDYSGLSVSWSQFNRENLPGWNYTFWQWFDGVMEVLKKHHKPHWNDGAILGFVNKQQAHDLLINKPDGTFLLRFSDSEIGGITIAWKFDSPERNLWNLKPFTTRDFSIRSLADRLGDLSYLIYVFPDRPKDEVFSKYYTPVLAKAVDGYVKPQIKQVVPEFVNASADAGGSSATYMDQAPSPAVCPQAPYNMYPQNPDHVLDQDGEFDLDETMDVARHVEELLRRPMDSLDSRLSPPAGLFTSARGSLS
# T4 sequence (Q96SW2 whole entry, looked up): as the sequence (Q96SW2 whole entry partner) above
# [15] = molecular target: T5, Protein cereblon/Signal transducer and activator of transcription 5B (Homo sapiens) (UniProt P51692+Q96SW2); experiment: PROTAC activity at CRBN/STAT5B in human DB cells assessed as induction of STAT5B degradation at 5 to 10 uM measured after 24 hrs; type: cell-based; settings: dose 5-10 µM
# T5 sequence (P51692 whole entry, looked up): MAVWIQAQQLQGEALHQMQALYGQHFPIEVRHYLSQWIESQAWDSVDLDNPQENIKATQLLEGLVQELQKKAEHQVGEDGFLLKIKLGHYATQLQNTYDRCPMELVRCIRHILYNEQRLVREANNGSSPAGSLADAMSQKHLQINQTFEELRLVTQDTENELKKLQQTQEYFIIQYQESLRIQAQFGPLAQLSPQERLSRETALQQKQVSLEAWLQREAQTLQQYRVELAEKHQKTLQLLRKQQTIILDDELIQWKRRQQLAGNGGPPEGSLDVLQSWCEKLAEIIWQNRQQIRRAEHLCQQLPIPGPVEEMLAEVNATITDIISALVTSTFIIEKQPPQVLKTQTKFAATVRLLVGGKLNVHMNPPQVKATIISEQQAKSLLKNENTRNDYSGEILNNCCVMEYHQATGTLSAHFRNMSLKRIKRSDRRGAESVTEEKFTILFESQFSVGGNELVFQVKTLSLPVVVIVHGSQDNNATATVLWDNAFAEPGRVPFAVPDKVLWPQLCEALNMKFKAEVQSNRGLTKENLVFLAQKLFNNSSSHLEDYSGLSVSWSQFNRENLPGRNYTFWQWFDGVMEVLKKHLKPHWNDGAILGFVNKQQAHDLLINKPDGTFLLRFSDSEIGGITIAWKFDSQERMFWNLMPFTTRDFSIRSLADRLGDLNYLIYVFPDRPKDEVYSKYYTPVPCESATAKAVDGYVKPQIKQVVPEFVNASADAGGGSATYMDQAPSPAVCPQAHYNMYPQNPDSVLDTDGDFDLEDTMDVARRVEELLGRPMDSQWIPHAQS
# T5 sequence (Q96SW2 whole entry, looked up): as the sequence (Q96SW2 whole entry partner) above
# Pfeiffer [16] = experiment: Downregulation of STAT3 expression in patient derived STAT3 high expressing human Pfeiffer cell organoids at 2 uM by Western blot analysis; type: functional, cell-based
# MOLM-16 [17] = experiment: Downregulation of NOP53 expression in human MOLM16 at 5 to 10 uM measured after 24 hrs; type: functional, cell-based; settings: dose 5-10 µM
# [18] = molecular target: T1, Protein cereblon/Signal transducer and activator of transcription 3 (Homo sapiens); experiment: PROTAC activity at CRBN/STAT3 in human DB cells assessed as fold change in STAT3 degradation at 5 uM measured after 24 hrs; type: cell-based
# Pfeiffer [19] = experiment: Downregulation of NOP53 expression in human Pfeiffer at 5 to 10 uM measured after 24 hrs; type: functional, cell-based; settings: dose 5-10 µM
# Pfeiffer [20] = experiment: Downregulation of PCLAF expression in human Pfeiffer at 5 to 10 uM measured after 24 hrs; type: functional, cell-based; settings: dose 5-10 µM
# [21] = molecular target: T1, Protein cereblon/Signal transducer and activator of transcription 3 (Homo sapiens); experiment: PROTAC activity at CRBN/STAT3 in human MOLM16 cells assessed as fold change in STAT3 degradation at 5 uM measured after 24 hrs; type: cell-based
# Pfeiffer [22] = experiment: Downregulation of STAT1 expression in patient derived STAT1 high expressing human Pfeiffer cell organoids at 2 uM by Western blot analysis; type: functional, cell-based
# Mus musculus [23] = experiment: In vivo PROTAC activity at CRBN/STAT1 in human Pfeiffer cells xenografted in CB-17/SCID mouse model bearing middle stage of TPPRC assessed as upregulation of STAT1 by measuring fold change; type: functional
# [24] = molecular target: T3, Protein cereblon/Signal transducer and activator of transcription 1-alpha/beta (Homo sapiens); experiment: PROTAC activity at CRBN/STAT1 in human DB cells assessed as induction of STAT1 degradation at 5 to 10 uM measured after 24 hrs; type: cell-based; settings: dose 5-10 µM
# [25] = molecular target: T6, Protein cereblon/Signal transducer and activator of transcription 2 (Homo sapiens) (UniProt Q96SW2+P52630); experiment: PROTAC activity at CRBN/STAT2 in human KARPAS-299 cells assessed as induction of STAT2 degradation at 5 to 10 uM measured after 24 hrs; type: cell-based; settings: dose 5-10 µM
# T6 sequence (P52630 whole entry, looked up): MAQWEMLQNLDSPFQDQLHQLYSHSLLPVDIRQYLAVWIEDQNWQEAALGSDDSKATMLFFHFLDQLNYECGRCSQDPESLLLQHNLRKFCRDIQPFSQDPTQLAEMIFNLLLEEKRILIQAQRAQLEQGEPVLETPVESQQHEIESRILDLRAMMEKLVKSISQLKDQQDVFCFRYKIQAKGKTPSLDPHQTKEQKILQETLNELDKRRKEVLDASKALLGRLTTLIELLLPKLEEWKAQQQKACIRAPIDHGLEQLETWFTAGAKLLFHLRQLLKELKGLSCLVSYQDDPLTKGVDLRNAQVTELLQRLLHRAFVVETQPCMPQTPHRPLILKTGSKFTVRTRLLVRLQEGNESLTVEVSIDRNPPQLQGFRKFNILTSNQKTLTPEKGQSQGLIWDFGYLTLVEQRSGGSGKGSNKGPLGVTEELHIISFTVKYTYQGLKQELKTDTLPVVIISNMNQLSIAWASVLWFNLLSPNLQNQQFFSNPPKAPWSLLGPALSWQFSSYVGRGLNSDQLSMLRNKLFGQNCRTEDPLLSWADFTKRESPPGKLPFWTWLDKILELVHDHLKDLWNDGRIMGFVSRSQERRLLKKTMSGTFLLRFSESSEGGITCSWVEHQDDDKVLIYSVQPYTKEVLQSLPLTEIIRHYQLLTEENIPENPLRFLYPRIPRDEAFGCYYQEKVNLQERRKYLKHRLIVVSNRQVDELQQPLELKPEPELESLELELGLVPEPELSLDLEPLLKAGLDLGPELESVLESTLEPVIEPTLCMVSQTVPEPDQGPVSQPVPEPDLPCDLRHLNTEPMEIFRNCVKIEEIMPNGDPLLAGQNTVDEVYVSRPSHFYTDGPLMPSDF
# T6 sequence (Q96SW2 whole entry, looked up): as the sequence (Q96SW2 whole entry partner) above
# [26] = molecular target: T2, Protein cereblon/Signal transducer and activator of transcription 6 (Homo sapiens); experiment: PROTAC activity at CRBN/STAT6 in human DB cells assessed as induction of STAT6 degradation at 5 to 10 uM measured after 24 hrs; type: cell-based; settings: dose 5-10 µM
# [27] = molecular target: T5, Protein cereblon/Signal transducer and activator of transcription 5B (Homo sapiens); experiment: PROTAC activity at CRBN/STAT5B in human KARPAS-299 cells assessed as induction of STAT5B degradation at 5 to 10 uM measured after 24 hrs; type: cell-based; settings: dose 5-10 µM
# [28] = molecular target: T1, Protein cereblon/Signal transducer and activator of transcription 3 (Homo sapiens); experiment: PROTAC activity at CRBN/STAT3 in human SUPM2 cells assessed as induction of STAT3 degradation at 5 uM measured after 3 hrs; type: cell-based
# SUD4 [29] = experiment: Downregulation of NOP53 expression in human SU-DHL-4 at 5 to 10 uM measured after 24 hrs; type: functional, cell-based; settings: dose 5-10 µM
# [30] = molecular target: T1, Protein cereblon/Signal transducer and activator of transcription 3 (Homo sapiens); experiment: PROTAC activity at CRBN/STAT3 in human Pfeiffer cells assessed as induction of STAT3 degradation at 5 uM measured after 3 hrs; type: cell-based
# [31] = molecular target: T1, Protein cereblon/Signal transducer and activator of transcription 3 (Homo sapiens); experiment: PROTAC activity at CRBN/STAT3 in human DB cells assessed as induction of STAT3 degradation at 5 to 10 uM measured after 24 hrs; type: cell-based; settings: dose 5-10 µM
# DB [32] = experiment: Downregulation of PCLAF expression in human DB at 5 to 10 uM measured after 24 hrs; type: functional, cell-based; settings: dose 5-10 µM
# MOLM-16 [33] = experiment: Downregulation of PCLAF expression in human MOLM16 at 5 to 10 uM measured after 24 hrs; type: functional, cell-based; settings: dose 5-10 µM
# Mus musculus [34] = experiment: In vivo PROTAC activity at human Pfeiffer cells xenografted in CB-17/SCID mouse model bearing late stage of TPPRC assessed as degradation of STAT3 at administered as IV dose; type: functional, organism-based; settings: dose 25-50 mg/kg
# SUD4 [35] = experiment: Downregulation of PCLAF expression in human SU-DHL-4 at 5 to 10 uM measured after 24 hrs; type: functional, cell-based; settings: dose 5-10 µM
# [36] = molecular target: T1, Protein cereblon/Signal transducer and activator of transcription 3 (Homo sapiens); experiment: PROTAC activity at CRBN/STAT3 in human Pfeiffer cells assessed as fold change in STAT3 degradation at 5 uM measured after 24 hrs; type: cell-based
# SUP-M2 [37] = experiment: Downregulation of NOP53 expression in human SUPM2 at 5 to 10 uM measured after 24 hrs; type: functional, cell-based; settings: dose 5-10 µM
# KARPAS-299 [38] = experiment: Downregulation of NOP53 expression in human KARPAS-299 at 5 to 10 uM measured after 24 hrs; type: functional, cell-based; settings: dose 5-10 µM
# [39] = molecular target: T1, Protein cereblon/Signal transducer and activator of transcription 3 (Homo sapiens); experiment: PROTAC activity at CRBN/STAT3 in human KARPAS-299 cells assessed as fold change in STAT3 degradation at 5 uM measured after 24 hrs; type: cell-based
# SUP-M2 [40] = experiment: Downregulation of PCLAF expression in human SUPM2 at 5 to 10 uM measured after 24 hrs; type: functional, cell-based; settings: dose 5-10 µM
# Pfeiffer [41] = experiment: Antitumor activity against human Pfeiffer cells xenografted in CB-17/SCID mouse model bearing late stage of TPPRC assessed as inhibition of tumor growth at 25 to 50 mg/kg, iv measured upto 21 days; type: functional, organism-based; settings: dose 25-50 mg/kg, time <= 21.0 day
# [42] = molecular target: T4, Protein cereblon/Signal transducer and activator of transcription 5A (Homo sapiens); experiment: PROTAC activity at CRBN/STAT5A in human DB cells assessed as induction of STAT5A degradation at 5 to 10 uM measured after 24 hrs; type: cell-based; settings: dose 5-10 µM
# DB [43] = experiment: Downregulation of NOP53 expression in human DB at 5 to 10 uM measured after 24 hrs; type: functional, cell-based; settings: dose 5-10 µM
# [44] = molecular target: T1, Protein cereblon/Signal transducer and activator of transcription 3 (Homo sapiens); experiment: PROTAC activity at CRBN/STAT3 in human DB cells assessed as induction of STAT3 degradation at 5 uM measured after 3 hrs; type: cell-based
# [45] = molecular target: T6, Protein cereblon/Signal transducer and activator of transcription 2 (Homo sapiens); experiment: PROTAC activity at CRBN/STAT2 in human DB cells assessed as induction of STAT2 degradation at 5 to 10 uM measured after 24 hrs; type: cell-based; settings: dose 5-10 µM
# [46] = molecular target: T1, Protein cereblon/Signal transducer and activator of transcription 3 (Homo sapiens); experiment: PROTAC activity at CRBN/STAT3 in human SU-DHL-4 cells assessed as fold change in STAT3 degradation at 5 uM measured after 24 hrs; type: cell-based
structure (smiles),measurement,setting,value
NC(=O)CC[C@H](NC(=O)[C@@H]1CC[C@@H]2CCN(C(=O)CCCCCC#Cc3cccc4c3CN(C3CCC(=O)NC3=O)C4=O)C[C@H](NC(=O)c3cc4cc(C(F)(F)P(=O)(O)O)ccc4[nH]3)C(=O)N21)C(=O)NC(c1ccccc1)c1ccccc1 (stereo partly specified),Activity,[1],Active
same,Activity,[2],Active
same,Activity,KARPAS-299 [3],Active
same,Activity,Pfeiffer [4],Active
same,fold change (FC),Mus musculus [5],>3.5
same,Activity,[6],inactive
same,Activity,[7],Active
same,Activity,[8],Active
same,fold change (FC),[9],0.66
same,Activity,[10],Non-Toxic
same,Activity,[11],inactive
same,Activity,Pfeiffer [12],Active
same,Activity,Pfeiffer [13],Active
same,Activity,[14],inactive
same,Activity,[15],inactive
same,Activity,Pfeiffer [16],Active
same,Activity,MOLM-16 [17],Active
same,fold change (FC),[18],0.66
same,Activity,Pfeiffer [19],inactive
same,Activity,Pfeiffer [20],inactive
same,fold change (FC),[21],0.66
same,Activity,Pfeiffer [22],Active
same,fold change (FC),Mus musculus [23],>3.5
same,Activity,[24],inactive
same,Activity,[25],inactive
same,Activity,[26],inactive
same,Activity,[27],inactive
same,Activity,[28],Active
same,Activity,SUD4 [29],inactive
same,Activity,[30],Active
same,Activity,[31],Active
same,Activity,DB [32],inactive
same,Activity,MOLM-16 [33],Active
same,Activity,Mus musculus [34],Dose-Dependent Effect
same,Activity,SUD4 [35],inactive
same,fold change (FC),[36],0.66
same,Activity,SUP-M2 [37],Active
same,Activity,KARPAS-299 [38],Active
same,fold change (FC),[39],0.66
same,Activity,SUP-M2 [40],Active
same,Activity,Pfeiffer [41],Active
same,Activity,[42],inactive
same,Activity,DB [43],inactive
same,Activity,[44],Active
same,Activity,[45],inactive
same,fold change (FC),[46],0.66
